Measurements from US12150995B2, “IRAK degraders and uses thereof” (Kymera Therapeutics, Inc., priority 2020, dated 2024).

target: T1, IRAK4 (Homo sapiens, UniProt Q9NWZ3); assay: IRAK4 MSD Degradation in OCI-LY10; format: cell-based; conditions: OCI-LY10 cells, Meso Scale Discovery, incubated 4 to 24 hours
T1 construct: endogenous in cells; host or cells: OCI-LY10
T1 sequence (Q9NWZ3 1-460): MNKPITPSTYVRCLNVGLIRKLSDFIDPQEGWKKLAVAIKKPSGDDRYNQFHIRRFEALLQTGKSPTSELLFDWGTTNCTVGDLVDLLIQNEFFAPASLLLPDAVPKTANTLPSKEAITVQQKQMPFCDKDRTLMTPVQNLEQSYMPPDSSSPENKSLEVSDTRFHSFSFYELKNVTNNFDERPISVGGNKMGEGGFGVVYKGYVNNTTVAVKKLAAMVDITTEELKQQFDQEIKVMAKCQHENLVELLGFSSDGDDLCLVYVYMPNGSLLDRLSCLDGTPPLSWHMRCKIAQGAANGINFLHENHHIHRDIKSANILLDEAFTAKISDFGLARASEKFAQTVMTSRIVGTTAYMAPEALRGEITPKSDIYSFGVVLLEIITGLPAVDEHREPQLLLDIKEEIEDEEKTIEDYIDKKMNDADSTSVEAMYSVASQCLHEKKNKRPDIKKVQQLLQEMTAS
Description: Degradation of IRAK4 in OCI-LY10 was quantitatively measured using Meso Scale Discovery technology. OCI-LY10 cells were seeded in 96-well plates (Corning 3799) with a density of 300,000 cells per well in 100 μL fresh media. Compounds were then added to the assay plates with a final top concentration of 1 to 10 μM in a 1:3 dilution series with total of 8 doses. The assay plates were then incubated for 4 to 24 hours at 37° C. under 5% CO2. The assay plates were then centrifuged for 5 minutes and the cell pellets were treated with 100 μL/well RIPA lysis buffer (Boston BioProducts BP-115D) with proteinase inhibitors. To prepare MSD assay plates (Meso Scale Discovery Catalog number L15XA-3), the plates were coated with 2 μg/mL capture antibody (mouse Anti-IRAK4 antibody [2H9], ab119942) in PBS, at 40 μL/well. The plates were then incubated overnight at 4° C., washed 3 times with 150 μL/well TBST buffer (Cell Signaling Technology, Catalog number 9997S) and blocked with 150 μL/well blocking buffer (Meso Scale Discovery Catalog number R93BA-4). Cell lysates were then added to MSD assay plates and the plates were incubated at room temperature for 1 hour. The plates were then washed 3 times with 150 μL/well TBST buffer and […] primary detection antibody (rabbit Anti-IRAK4 antibody [Y279], from Abcam. Catalog number ab32511, 1 μg/mL). The assay plates were then incubated at room temperature for 1 hour, washed 3 times with 150 μL/well TBST buffer and 254/well secondary detection antibody, SULFO-TAG anti-rabbit antibody were added (anti rabbit antibody from Meso Scale Discovery, Catalog number R32AB-1, 1 μg/mL). The assay plates were then incubated at room temperature for 1 hour, washed 3 times with 150 μL/well TBST buffer, and 150 μL/well MSD reading buffer (Meso Scale Discovery catalog number R92TC-2) was added. The plates were then analyzed by a MSD reader (Meso Scale Discovery, Model Quick Plex SQ 120). The data was then analyzed by software Prism 7.0 from GraphPad and the dose-depended IRAK4 degradation were fit using a three-parameter logistic equation to calculate DC50.
The letter codes for IRAK4 DC50 include: A (<0.01 μM); B (0.01-0.05 μM); C (0.05-0.1 μM); D (0.1-0.2 μM); and E (>0.2 μM).

Row | Compound | DC50
1 | COc1cc2nn([C@H]3CC[C@H](CN(C)C4CCN(c5c(C)ccc6c5n(C)c(=O)n6C5CCC(=O)NC5=O)CC4)CC3)cc2cc1NC(=O)c1cccc(C(F)(F)F)n1 (stereo partly drawn) [I-40] | 10 to 50 nM
2 | COc1cc2c(cc1NC(=O)c1cccc(C(F)(F)F)n1)cc([C@H]1CC[C@H](CN(C)C3CCN(c4cccc5c4n(C)c(=O)n5C4CCC(=O)NC4=O)CC3)CC1)n2C (stereo partly drawn) [I-41] | > 200 nM
3 | COc1cc2c(cc1NC(=O)c1cccc(C(F)(F)F)n1)cc([C@H]1CC[C@H](CN3CCC(c4cccc5c4n(C)c(=O)n5C4CCC(=O)NC4=O)CC3)CC1)n2C (stereo partly drawn) [I-43] | > 200 nM
4 | Cn1c(=O)n(C2CCC(=O)NC2=O)c2cccc(C3CCN(C[C@H]4CC[C@H](n5cc6cc(NC(=O)c7cccc(C(F)(F)F)n7)c(N7C[C@H]8C[C@@H]7CO8)cc6n5)CC4)CC3)c21 (stereo partly drawn) [I-44] | < 10 nM
5 | COc1cc2nn([C@H]3C[C@H](CN4CC(c5cccc6c5n(C)c(=O)n6C5CCC(=O)NC5=O)C4)C3)cc2cc1NC(=O)c1cccc(C(F)(F)F)n1 (stereo partly drawn) [I-46, N-[2-[3-[[3-[1-(2,6-dioxo-3-piperidyl)-3-methyl-2-oxo-benzimidazol-4-yl]azetidin-1-yl]methyl]cyclobutyl]-6-methoxy-indazol-5-yl]-6-(trifluoromethyl)pyridine-2-carboxamide] | 10 to 50 nM
6 | Cn1c(=O)n(C2CCC(=O)NC2=O)c2cccc(C3CCN(C[C@H]4CC[C@H](n5cc6cc(NC(=O)c7cnccn7)c(F)cc6n5)CC4)CC3)c21 (stereo partly drawn) [I-49] | > 200 nM
7 | COc1cc2nn([C@H]3C[C@@H](CN4CC(c5cccc6c5n(C)c(=O)n6C5CCC(=O)NC5=O)C4)C3)cc2cc1NC(=O)c1cccc(C(F)(F)F)n1 (stereo partly drawn) [I-50, N-[2-[3-[[3-[1-(2,6-dioxo-3-piperidyl)-3-methyl-2-oxo-benzimidazol-4-yl]azetidin-1-yl]methyl]cyclobutyl]-6-methoxy-indazol-5-yl]-6-(trifluoromethyl)pyridine-2-carboxamide] | 10 to 50 nM
8 | COc1cc2nn([C@H]3CC[C@H](CN(C)C4CCN(c5c(Cl)ccc6c5n(C)c(=O)n6C5CCC(=O)NC5=O)CC4)CC3)cc2cc1NC(=O)c1cccc(C(F)(F)F)n1 (stereo partly drawn) [I-53] | 10 to 50 nM
9 | COc1cc2nn([C@H]3CC[C@H](CN(C)C4CCN(c5cc(Cl)cc6c5n(C)c(=O)n6C5CCC(=O)NC5=O)CC4)CC3)cc2cc1NC(=O)c1cccc(C(F)(F)F)n1 (stereo partly drawn) [I-54] | < 10 nM
10 | Cn1c(=O)n(C2CCC(=O)NC2=O)c2cccc(C3CCN(C[C@H]4CC[C@H](n5cc6cc(NC(=O)c7cccc(C(F)(F)F)n7)c(N7C[C@@H]8C[C@H]7CO8)cc6n5)CC4)CC3)c21 (stereo partly drawn) [I-55] | 10 to 50 nM
11 | COc1cc2nn([C@H]3CC[C@H](CN(C)C4CCN(c5cc(C)cc6c5n(C)c(=O)n6C5CCC(=O)NC5=O)CC4)CC3)cc2cc1NC(=O)c1cccc(C(F)(F)F)n1 (stereo partly drawn) [I-56] | 10 to 50 nM
12 | CN(C[C@H]1CC[C@H](n2cc3cc(NC(=O)c4cccc(C(F)(F)F)n4)ccc3n2)CC1)C1CCN(c2cccc3c2n(C)c(=O)n3C2CCC(=O)NC2=O)CC1 (stereo partly drawn) [I-58] | < 10 nM
13 | CN(C[C@H]1CC[C@H](c2cc3cc(NC(=O)c4cccc(C(F)(F)F)n4)c(F)cc3n2C)CC1)C1CCN(c2cccc3c2n(C)c(=O)n3C2CCC(=O)NC2=O)CC1 (stereo partly drawn) [I-59] | > 200 nM
14 | Cc1nc(C(=O)Nc2cc3cn([C@H]4CC[C@H](CN5CCC(c6cccc7c6n(C)c(=O)n7C6CCC(=O)N(C)C6=O)CC5)CC4)nc3cc2C(C)(C)O)co1 (stereo partly drawn) [I-60] | > 200 nM
15 | Cc1nc(C(=O)Nc2cc3cn([C@H]4CC[C@H](CN(C)C5CCN(c6cccc7c6n(C)c(=O)n7C6CCC(=O)N(C)C6=O)CC5)CC4)nc3cc2C(C)(C)O)co1 (stereo partly drawn) [I-61] | > 200 nM
16 | Cn1c(=O)n(C2CCC(=O)NC2=O)c2cccc(C3CCN(C[C@H]4CC[C@H](n5cc6cc(NC(=O)c7cnn8cccnc78)c(F)cc6n5)CC4)CC3)c21 (stereo partly drawn) [I-63] | < 10 nM
17 | CC(C)(O)c1cc2nn([C@H]3CC[C@H](CN4CCC(c5ccc6c(N7CCC(=O)NC7=O)cncc6c5)CC4)CC3)cc2cc1NC(=O)c1cccc(C(F)(F)F)n1 [I-64] | < 10 nM
18 | CN(C[C@H]1CC[C@H](n2cc3cc(NC(=O)c4cccc(C(F)(F)F)n4)c(C(C)(C)O)cc3n2)CC1)C1CCN(c2ccc3c(N4CCC(=O)NC4=O)cncc3c2)CC1 [I-65] | < 10 nM
19 | CN(C[C@H]1CC[C@H](n2cc3cc(NC(=O)c4cccc(C(F)(F)F)n4)c(C(C)(C)O)cc3n2)CC1)C1CCN(c2cccc3c(N4CCC(=O)NC4=O)cncc23)CC1 [I-66] | < 10 nM
20 | O=C1CCN(c2cncc3c(C4CCN(C[C@H]5CC[C@H](n6cc7cc(NC(=O)c8cccc(C(F)(F)F)n8)ccc7n6)CC5)CC4)cccc23)C(=O)N1 [I-68] | 10 to 50 nM
21 | COc1cc2nn([C@H]3CC[C@H](CN(C)C4CCN(c5cccc6c5n(C)c(=O)n6C5CCC(=O)NC5=O)CC4)CC3)cc2cc1NC(=O)c1cncc(C#N)c1 (stereo partly drawn) [I-71, 5-cyano-N-[2-[4-[[[1-[1-(2,6-dioxo-3-piperidyl)-3-methyl-2-oxo-benzimidazol-4-yl]-4-piperidyl]-methyl-amino]methyl]cyclohexyl]-6-methoxy-indazol-5-yl]pyridine-3-carboxamide] | < 10 nM

The next lines start with the values.

Row | DC50 | Compound
22 | < 10 nM | Cn1c(=O)n(C2CCC(=O)NC2=O)c2cccc(C3CCN(C[C@H]4CC[C@H](n5cc6cc(NC(=O)c7cncc(C(F)(F)F)n7)c(F)cc6n5)CC4)CC3)c21 (stereo partly drawn) [I-45]
23 | 10 to 50 nM | COc1ccc2c(c1C1CCN(C[C@H]3CC[C@H](n4cc5cc(NC(=O)c6cccc(C(F)(F)F)n6)c(F)cc5n4)CC3)CC1)n(C)c(=O)n2C1CCC(=O)NC1=O (stereo partly drawn) [I-47]
24 | < 10 nM | COc1cc2nn([C@H]3CC[C@H](CN4CCC(c5c(OC)ccc6c5n(C)c(=O)n6C5CCC(=O)NC5=O)CC4)CC3)cc2cc1NC(=O)c1cccc(C(F)(F)F)n1 (stereo partly drawn) [I-48]
25 | < 10 nM | COc1cc2nn([C@H]3CC[C@H](CN4CCC(c5ccc(F)c6c5n(C)c(=O)n6C5CCC(=O)NC5=O)CC4)CC3)cc2cc1NC(=O)c1cccc(C(F)(F)F)n1 (stereo partly drawn) [I-51]
26 | < 10 nM | COc1cc2nn([C@H]3CC[C@H](CN4CCC(c5cc(F)cc6c5n(C)c(=O)n6C5CCC(=O)NC5=O)CC4)CC3)cc2cc1NC(=O)c1cccc(C(F)(F)F)n1 (stereo partly drawn) [I-52]
27 | < 10 nM | Cn1c(=O)n(C2CCC(=O)NC2=O)c2cccc(C3CCN(C[C@H]4CC[C@H](n5cc6cc(NC(=O)c7cccc(C(F)(F)F)n7)ccc6n5)CC4)CC3)c21 (stereo partly drawn) [I-57]
28 | < 10 nM | Cn1c(=O)n(C2CCC(=O)NC2=O)c2cccc(C3CCN(C[C@H]4CC[C@H](n5cc6cc(NC(=O)c7cccc(C(F)(F)F)n7)ncc6n5)CC4)CC3)c21 (stereo partly drawn) [I-62]
29 | 10 to 50 nM | Cc1ccc2c(c1C1CCN(C[C@H]3CC[C@H](n4cc5cc(NC(=O)c6cccc(C(F)(F)F)n6)c(F)cc5n4)CC3)CC1)n(C)c(=O)n2C1CCC(=O)NC1=O (stereo partly drawn) [I-67]
30 | < 10 nM | Cn1c(=O)n(C2CCC(=O)NC2=O)c2cccc(C3CCN(C[C@H]4CC[C@H](n5cc6cc(NC(=O)c7cccc(C(F)(F)F)n7)c(C7CC7)cc6n5)CC4)CC3)c21 (stereo partly drawn) [I-69]
31 | < 10 nM | Cc1cc2nn([C@H]3CC[C@H](CN4CCC(c5cccc6c5n(C)c(=O)n6C5CCC(=O)NC5=O)CC4)CC3)cc2cc1NC(=O)c1cccc(C(F)(F)F)n1 (stereo partly drawn) [I-70]
32 | 10 to 50 nM | Cn1c(=O)n(C2CCC(=O)NC2=O)c2cc(Cl)cc(C3CCN(C[C@H]4CC[C@H](n5cc6cc(NC(=O)c7cccc(C(F)(F)F)n7)c(F)cc6n5)CC4)CC3)c21 (stereo partly drawn) [I-72]
33 | 10 to 50 nM | Cc1ccc2c(c1C1CCN(C[C@H]3CC[C@H](n4cc5cc(NC(=O)c6cccc(C(F)(F)F)n6)c(Cl)cc5n4)CC3)CC1)n(C)c(=O)n2C1CCC(=O)NC1=O (stereo partly drawn) [I-73]
34 | 10 to 50 nM | Cn1c(=O)n(C2CCC(=O)NC2=O)c2ccc(F)c(C3CCN(C[C@H]4CC[C@H](n5cc6cc(NC(=O)c7cccc(C(F)(F)F)n7)ccc6n5)CC4)CC3)c21 (stereo partly drawn) [I-74]
35 | 10 to 50 nM | COc1ccc2c(c1C1CCN(C[C@H]3CC[C@H](n4cc5cc(NC(=O)c6cccc(C(F)(F)F)n6)ccc5n4)CC3)CC1)n(C)c(=O)n2C1CCC(=O)NC1=O (stereo partly drawn) [I-75]
36 | 10 to 50 nM | Cn1c(=O)n(C2CCC(=O)NC2=O)c2cccc(C3CCN(C[C@H]4CC[C@H](n5cc6cc(NC(=O)c7cccc(C(F)(F)F)n7)c(C(F)(F)F)cc6n5)CC4)CC3)c21 (stereo partly drawn) [I-76]
